Experimental findings from BindingDB's records for doi:10.1016/j.bmc.2019.115177 (National Centre For Scientific Research "Demokritos, 2019) are described below.

Structures are written as SMILES.

In assay [1] the target is Insulin-regulated aminopeptidase (Homo sapiens). The assay can be described thus: Competitive inhibition of human recombinant IRAP expressed in baculovirus infected sf9 cells using L-AMC as substrate incubated for 5 to 10 mins by Michaelis-Menten analysis.
The target is the same in assay [2]. Kind of assay: Inhibition of human recombinant IRAP expressed in baculovirus infected Sf9 cells using omniMMP fluorogenic substrate incubated for 5 to 10 mins by fluorescence spectrophotometry analysis.

What is called Ki is a dissociation constant, usually derived from enzyme kinetics or from competition with a known ligand. For orientation: IC50 means the point on the concentration scale where inhibition reaches its midpoint.

Regarding `CCCC[C@H](N)C(=O)Nc1cc(C(=O)N[C@@H](Cc2c[nH]c3ccccc23)C(=O)OCc2ccccc2)ccn1`, the Ki in assay [1] turned out to be 4.6 µM. The IC50 in assay [2] came to 8.8 µM.
On to `COc1cccn(CC(=O)NCCc2ccc(-c3ccccc3)cc2)c1=S`, for which the inhibitory constant (Ki) in assay [1] was determined as 8.7 µM. Moreover, the 50% inhibitory concentration (IC50) in assay [2] amounted to 16.7 µM.
Turning to `CCCC[C@H](N)C(=O)Nc1ccc(C(=O)N[C@@H](Cc2c[nH]c3ccccc23)C(=O)OCc2ccccc2)cc1`, the concentration for half-maximal inhibition (IC50) in assay [2] is above 10 µM.
As for `O=C(Cn1cccc(O)c1=O)NCCc1ccc(-c2ccccc2)cc1`, the inhibition constant (Ki) in assay [1] came out at 13 µM. Moreover, the half-inhibitory concentration (IC50) in assay [2] came to 24.8 µM.
The like results for `CCCC[C@H](N)C(=O)NNc1cccc(C(=O)N[C@@H](Cc2c[nH]c3ccccc23)C(=O)OCc2ccccc2)c1` were, in that order, 3.8 µM and 7.2 µM.
The like results for `CCCC[C@H](N)C(=O)Nc1cccc(C(=O)N[C@@H](Cc2c[nH]c3ccccc23)C(=O)OCc2ccccc2)c1` were, in that order, 3.2 µM and 6.2 µM.
The like results for `CCCC[C@H](N)C(=O)NNc1ccc(C(=O)N[C@@H](Cc2c[nH]c3ccccc23)C(=O)OCc2ccccc2)cc1` were, in that order, 1.3 µM and 2.5 µM.
In the case of `CC(C)[C@H](NC(=O)Cn1cccc(O)c1=O)C(=O)OCc1ccccc1`, in assay [1], the Ki was 17.6 µM. The IC50 in assay [2] came to 33.6 µM.
For the molecule `N[C@@H](CCc1ccccc1)C(=O)NNc1ccc(C(=O)N[C@@H](Cc2c[nH]c3ccccc23)C(=O)OCc2ccccc2)cc1`, the IC50 in assay [2] amounted to 2.5 µM.
Turning to `O=C(Cn1cccc(O)c1=O)N[C@@H](Cc1c[nH]c2ccccc12)C(=O)OCc1ccccc1`, the Ki in assay [1] was 5.7 µM. Also, the IC50 in assay [2] stood at 10.9 µM.
